In article PMC9933715 (Antimicrobial Agents and Chemotherapy, 2023):
Like-named read-outs stand apart in the source and are kept apart here.

What was measured:
[1] = system: DENV-R2A (Rluc-expressing DENV, serotype 2 strain 16681); assay: microbe, parasite or virus in culture; type: cell-based, Dengue virus; conditions: for activity at 50 µM: Dengue virus, Huh7.5, 48 h; for inhibitory activity against DENV-R2A (SAR, in words) / antiviral activity against DENV-R2A (SAR, in words): 50 μM; for antiviral activity against DENV-R2A (SAR, in words): NPP3C analogues
[2] = system: ZIKV-R2A (strain FSS13025); assay: microbe, parasite or virus in culture; type: cell-based; conditions: Zika virus, Huh7.5, 48 h, read-out: ZIKV-R2A replication (fold DMSO) Mean
[3] = system: Huh7.5 cells; assay: Cell viability, CellTiter-Glo luminescent assay; conditions: for Cell viability (fold DMSO) Mean: deconvolution screen, singletons, uninfected Huh7.5
[4] = read-out: DENV-R2A replication (fold DMSO) Mean, deconvolution screen, singletons, 50 µM, Huh7.5, 2 days postinfection
[5] = read-out: DENV-R2A replication (Fold DMSO), 6A1HI analogues, test concentration = 50 µM, Huh7.5 cells
[6] = read-out: DENV-R2A replication (Fold DMSO), Table S3, NPP3C analogues, 50 µM, Huh7.5, 2 days postinfection
[7] = read-out: DENV-R2A replication (fold DMSO), Table 2, 6A1HI analogues, 50 μM, Huh7.5, 2 days postinfection
[8] = 6A1HI analogues, test concentration = 50 µM, Huh7.5 cells
[9] = Table 2, 6A1HI analogues, 50 μM, Huh7.5, 2 days
[10] = Table S3, NPP3C analogues, 50 µM, Huh7.5
[11] = read-out: DENV-R2A replication (fold DMSO), Table 1, NPP3C analogues, 50 μM, Huh7.5, 2 days postinfection
[12] = Table S3, NPP3C analogues, 50 µM, Huh7.5, 2 days postinfection
[13] = Table 1, NPP3C analogues, 50 μM, Huh7.5, 2 days

Structure (SMILES)	activity at 50 µM [1, 4]	activity at 50 µM [2]	Cell viability (fold DMSO) Mean ([3]; 50 µM)	activity at 50 µM [1, 5]	Cell viability (Fold DMSO) [3, 8]	Cell viability (Fold DMSO) [3, 10]	other results
Cn1cncc1C(=O)O [AS-5483, Cn1cncc1C(=O)O]	99%	99%	1.12 fold DMSO	–	–	–	–
Clc1ccc(N2CCNCC2)nc1 [AS-5607, Clc1ccc(nc1)N2CCNCC2]	76%	81%	1.13 fold DMSO	–	–	–	–
COC(=O)[C@H]1CCC(=O)N1 [AS-7023, COC(=O)[C@H]1CCC(=O)N1]	102%	103%	1.19 fold DMSO	–	–	–	–
OCc1c[nH]c(-c2ccccc2)n1 [CB-0713, OCc1c[nH]c(n1)c2ccccc2]	92%	100%	1.02 fold DMSO	–	–	–	–
CC(=O)c1ccccc1-n1ccnc1 [Compound 1B-028, CC(=O)c1ccccc1n2ccnc2]	59%	58%	0.78 fold DMSO	–	–	–	–
NC(=O)c1ccco1 [Compound 2B-052, NC(=O)c1occc1]	98%	112%	1.17 fold DMSO	–	–	–	–
CC1CCN(Cc2ccc(Cl)nc2)CC1 [Compound 2X-0836, CC1CCN(Cc2ccc(Cl)nc2)CC1]	89%	104%	1.16 fold DMSO	–	–	–	–
OCc1ccc2cn[nH]c2c1 [Compound 3]	–	–	–	110%	0.93 Fold DMSO	0.94 Fold DMSO	activity at 50 µM [1, 6]: 89%; activity at 50 µM [1, 7]: 110%; Cell viability (Fold DMSO) [3, 9]: 0.93 fold DMSO
CC(=O)c1ccc2cn(C)nc2c1 [Compound 4]	–	–	–	97%	0.75 Fold DMSO	0.96 Fold DMSO	inhibitory activity against DENV-R2A (SAR, in words) ([1]; 6A1HI analogues): loss of inhibitory activity; activity at 50 µM [1, 6]: 105%; activity at 50 µM [1, 7]: 97%; Cell viability (Fold DMSO) [3, 9]: 0.75 fold DMSO
c1ccn(-c2cnccn2)c1 [Compound 6N-039, c1ccn(c1)c2cnccn2]	95%	99%	0.93 fold DMSO	–	–	–	–
NCc1ccc2cn[nH]c2c1 [Compound 6]	–	–	–	96%	0.76 Fold DMSO	0.77 Fold DMSO	activity at 50 µM [1, 6]: 55%; activity at 50 µM [1, 7]: 96%; Cell viability (Fold DMSO) [3, 9]: 0.76 fold DMSO
O=C1CCC(c2ccccc2)=NN1 [Compound 7L-571S, O=C1CCC(=NN1)c2ccccc2]	107%	124%	0.99 fold DMSO	–	–	–	–
Cc1cnn2c(C3CC3)ccnc12 [Compound 7T-0305, Cc1cnn2c(ccnc12)C3CC3]	108%	111%	1.06 fold DMSO	–	–	–	–
O=C(Nc1ccccc1)N1CCNCC1 [Compound 7]	–	–	–	105%	–	–	activity at 50 µM [1, 11]: 82%; activity at 50 µM [1, 7]: 105%
Clc1ncc(CN2CCCCC2)s1 [Compound 8N-010, Clc1ncc(CN2CCCCC2)s1]	101%	111%	0.95 fold DMSO	–	–	–	–
Clc1ncc(Cn2ccnc2)s1 [Compound 8P-013, Clc1ncc(Cn2ccnc2)s1]	104%	118%	0.94 fold DMSO	–	–	–	–
CC(=O)c1ccc2cc(O)ccc2c1 [Compound 8X-0242, CC(=O)c1ccc2cc(O)ccc2c1]	86%	81%	1.00 fold DMSO	–	–	–	–
CNC(=O)c1cn(C)c2ccccc12 [Compound 9T-1495, CNC(=O)c1cn(C)c2ccccc12]	103%	98%	–	–	–	–	–
CC(=O)c1cccc2cn[nH]c12 [Compound 9]	–	–	–	90%	1.03 Fold DMSO	0.96 Fold DMSO	inhibitory activity against DENV-R2A (SAR, in words) ([1]; 6A1HI analogues): inhibitory activity was completely lost; activity at 50 µM [1, 6]: 107%; activity at 50 µM [1, 7]: 90%; Cell viability (Fold DMSO) [3, 9]: 1.03 fold DMSO
Nc1cccc(-c2cccnc2)c1 [Compound 10]	–	–	–	–	0.93 Fold DMSO	0.93 Fold DMSO	DENV-R2A replication (Fold DMSO) [1, 8]: 1.00 Fold DMSO; DENV-R2A replication (Fold DMSO) [1, 12]: 1.04 Fold DMSO

Structure (SMILES)	activity at 50 µM [1, 4]	activity at 50 µM [2]	Cell viability (fold DMSO) Mean ([3]; 50 µM)	activity at 50 µM [1, 5]	Cell viability (Fold DMSO) [3, 8]	Cell viability (Fold DMSO) [3, 10]	other results
Oc1ccc2[nH]ncc2c1 [Compound 18]	–	–	–	106%	0.98 Fold DMSO	0.95 Fold DMSO	activity at 50 µM [1, 6]: 101%; activity at 50 µM [1, 7]: 106%; Cell viability (Fold DMSO) [3, 9]: 0.98 fold DMSO
O=C(Nc1ccncc1)c1ccccc1 [Compound 28]	–	–	–	–	0.48 Fold DMSO	1.05 Fold DMSO	DENV-R2A replication (Fold DMSO) [1, 8]: 0.09 Fold DMSO; DENV-R2A replication (Fold DMSO) [1, 12]: 1.05 Fold DMSO
O=C(Nc1ccccc1Cl)c1cccnc1 [Compound 29]	–	–	–	55%	0.96 Fold DMSO	0.95 Fold DMSO	activity at 50 µM [1, 11]: 99%; Cell viability (Fold DMSO) [3, 13]: 0.95 fold DMSO
O=C(c1ccccc1)c1cccnc1 [Compound 33]	–	–	–	–	0.89 Fold DMSO	0.95 Fold DMSO	DENV-R2A replication (Fold DMSO) [1, 8]: 0.95 Fold DMSO; DENV-R2A replication (Fold DMSO) [1, 12]: 1.14 Fold DMSO
O=C(NC1CC1)c1ccc(C(F)(F)F)nc1 [Compound 41]	–	–	–	–	0.98 Fold DMSO	0.90 Fold DMSO	DENV-R2A replication (Fold DMSO) [1, 8]: 1.13 Fold DMSO; DENV-R2A replication (Fold DMSO) [1, 12]: 1.24 Fold DMSO
CC(=O)c1ccc2c(c1)OCO2 [Compound 42]	–	–	–	107%	0.93 Fold DMSO	1.15 Fold DMSO	inhibitory activity against DENV-R2A (SAR, in words) ([1]; 6A1HI analogues): loss of inhibitory activity; activity at 50 µM [1, 6]: 153%; activity at 50 µM [1, 7]: 107%; Cell viability (Fold DMSO) [3, 9]: 0.93 fold DMSO
O=C(Nc1cccc(B(O)O)c1)c1cccnc1 [Compound 52]	–	–	–	115%	–	–	activity at 50 µM [1, 11]: 107%; activity at 50 µM [1, 7]: 115%
O=C(NNc1ccccc1)c1ccncc1 [Compound 54]	–	–	–	106%	0.95 Fold DMSO	0.67 Fold DMSO	activity at 50 µM [1, 11]: 37%; antiviral activity against DENV-R2A (SAR, in words) [1]: retains little activity, if any; Cell viability (Fold DMSO) [3, 13]: 0.67 fold DMSO
Nc1cccc(NC(=O)c2cccnc2)c1 [Compound 55]	–	–	–	134%	1.08 Fold DMSO	0.96 Fold DMSO	activity at 50 µM [1, 11]: 75%; Cell viability (Fold DMSO) [3, 13]: 0.96 fold DMSO
CC(Nc1ccccc1)c1cccnc1 (stereo not drawn) [Compound 56]	–	–	–	114%	0.98 Fold DMSO	0.94 Fold DMSO	activity at 50 µM [1, 11]: 147%; antiviral activity against DENV-R2A (SAR, in words) [1]: retains little activity, if any; Cell viability (Fold DMSO) [3, 13]: 0.94 fold DMSO
Nc1ccc(C(=O)Nc2ccccc2)cc1 [Compound 61]	–	–	–	–	0.83 Fold DMSO	0.98 Fold DMSO	DENV-R2A replication (Fold DMSO) [1, 8]: 1.09 Fold DMSO; DENV-R2A replication (Fold DMSO) [1, 12]: 0.98 Fold DMSO
O=C(Nc1ccccc1)c1ccc(C(F)(F)F)nc1 [Compound 62]	–	–	–	–	1.03 Fold DMSO	0.79 Fold DMSO	DENV-R2A replication (Fold DMSO) [1, 8]: 0.93 Fold DMSO; DENV-R2A replication (Fold DMSO) [1, 12]: 0.71 Fold DMSO
c1ccc(NCc2cccnc2)cc1 [Compound 63]	–	–	–	81%	–	–	activity at 50 µM [1, 11]: 138%; antiviral activity against DENV-R2A (SAR, in words) [1]: retains little activity, if any
O=C(Nc1ccc(C(F)(F)F)cc1)c1cccnc1 [Compound 65]	–	–	–	115%	1.17 Fold DMSO	0.87 Fold DMSO	activity at 50 µM [1, 11]: 98%; Cell viability (Fold DMSO) [3, 13]: 0.87 fold DMSO
N#CC(Cc1cccnc1)C(=O)Nc1ccccc1 (stereo not drawn) [Compound 68]	–	–	–	–	1.03 Fold DMSO	0.93 Fold DMSO	DENV-R2A replication (Fold DMSO) [1, 8]: 1.02 Fold DMSO; DENV-R2A replication (Fold DMSO) [1, 12]: 1.79 Fold DMSO
O=C(NNC(=O)c1ccncc1)Nc1ccccc1 [Compound 69]	–	–	–	–	1.02 Fold DMSO	0.88 Fold DMSO	DENV-R2A replication (Fold DMSO) [1, 8]: 0.98 Fold DMSO; DENV-R2A replication (Fold DMSO) [1, 12]: 1.32 Fold DMSO
NC(=O)c1ccc2cn[nH]c2c1 [Compound 75]	–	–	–	106%	0.99 Fold DMSO	–	activity at 50 µM [1, 7]: 106%; Cell viability (Fold DMSO) [3, 9]: 0.99 fold DMSO
CC(=O)c1ccc2[nH]c(=O)[nH]c2c1 [Compound 76]	–	–	–	87%	0.98 Fold DMSO	–	inhibitory activity against DENV-R2A (SAR, in words) ([1]; 6A1HI analogues): loss of inhibitory activity; activity at 50 µM [1, 7]: 87%; Cell viability (Fold DMSO) [3, 9]: 0.98 fold DMSO
O=C1CCc2ccccc21 [PS-5770, O=C1CCc2ccccc12]	103%	103%	–	–	–	–	–
